ChEMBL document CHEMBL1201862, “PubChem BioAssay data set” (2004)
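Method: 48-hour compound exposure of cells in 96-well plates, five concentrations, linear interpolation of endpoints. At the GI50, growth is halved.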 The source made the active and inactive calls. Cut-off read from the data, not from the text of the source: active = GI50 up to about 1.1 µM and inactive = higher.

How the values were obtained:
Experiment in all cases: NCI-60 cell line screen, 48 h
A549 = system: A549
CAKI-1 = system: CAKI-1
COLO 205 = system: COLO 205
DU-145 = system: DU-145
EKVX = system: EKVX
HCC 2998 = system: HCC 2998
LOX IMVI = system: LOX IMVI
M14 = system: M14
MCF7 = system: MCF7
MDA-MB-435 = system: MDA-MB-435
NCI-H226 = system: NCI-H226
NCI-H522 = system: NCI-H522
OVCAR-5 = system: OVCAR-5
SF-295 = system: SF-295
SK-OV-3 = system: SK-OV-3
SN12C = system: SN12C
SNB-19 = system: SNB-19
SW-620 = system: SW-620
UACC-257 = system: UACC-257
786-0 = system: 786-0

Measured: GI50

C/C=C1\C[C@@H]2C(OC)Nc3cc(O)c(OC)cc3C(=O)N2C1 (some centres undefined)
active: A549 < 0.01 µM | CAKI-1 < 0.01 µM | COLO 205 0.00692 µM | DU-145 < 0.01 µM | EKVX < 0.0103 µM | HCC 2998 0.0158 µM | LOX IMVI < 0.01 µM | M14 0.00461 µM | MCF7 < 0.01 µM | MDA-MB-435 < 0.01 µM | NCI-H226 0.0223 µM | NCI-H522 < 0.01 µM | OVCAR-5 < 0.01 µM | SF-295 < 0.01 µM | SK-OV-3 < 0.01 µM | SN12C < 0.01 µM | SNB-19 0.0074 µM | SW-620 < 0.01 µM | UACC-257 < 0.01 µM

CCOP(=O)(COCCn1ncc(=O)[nH]c1=O)OCC
inactive: A549 > 100 µM | CAKI-1 > 100 µM | COLO 205 > 100 µM | DU-145 > 100 µM | EKVX > 100 µM | HCC 2998 > 100 µM | LOX IMVI > 100 µM | M14 > 100 µM | MCF7 > 100 µM | MDA-MB-435 > 100 µM | NCI-H226 > 100 µM | NCI-H522 > 100 µM | OVCAR-5 > 100 µM | SN12C > 100 µM | SNB-19 > 100 µM | SW-620 > 100 µM

COC(=O)[C@@H]1C[C@@H]2c3ccccc3N(S(=O)(=O)c3ccccc3)[C@@H]2N1C(=O)OC
inactive: 786-0 > 100 µM | A549 > 100 µM | CAKI-1 > 100 µM | COLO 205 > 100 µM | DU-145 35.2 µM | EKVX > 100 µM | HCC 2998 > 100 µM | LOX IMVI > 100 µM | MCF7 > 100 µM | MDA-MB-435 > 100 µM | NCI-H226 > 100 µM | NCI-H522 > 100 µM | OVCAR-5 44 µM | SF-295 > 100 µM | SK-OV-3 > 100 µM | SN12C > 100 µM | SNB-19 > 100 µM | SW-620 > 100 µM | UACC-257 > 100 µM

NS(=O)(=O)c1nnc(NS(=O)(=O)c2ccccc2[N+](=O)[O-])s1
inactive: 786-0 > 100 µM | A549 > 100 µM | CAKI-1 > 100 µM | COLO 205 > 100 µM | DU-145 > 100 µM | EKVX > 100 µM | HCC 2998 > 100 µM | M14 > 100 µM | MCF7 > 100 µM | MDA-MB-435 > 100 µM | NCI-H226 > 100 µM | NCI-H522 > 100 µM | OVCAR-5 > 100 µM | SF-295 > 100 µM | SK-OV-3 > 100 µM | SNB-19 > 100 µM | SW-620 > 100 µM

COc1cc(S(=O)(=O)Nc2ccc(-c3csc(N4C(=O)C(C)SC4c4ccccc4O)n3)cc2)ccc1Cl (centres undefined)
inactive: 786-0 35.1 µM | A549 > 100 µM | CAKI-1 85.9 µM | COLO 205 25.2 µM | DU-145 41.3 µM | EKVX 28.8 µM | LOX IMVI 29.9 µM | M14 40.2 µM | MCF7 35.2 µM | MDA-MB-435 37.8 µM | NCI-H226 28.6 µM | NCI-H522 18.3 µM | OVCAR-5 95.1 µM | SF-295 59.3 µM | SK-OV-3 > 100 µM | SN12C 40.9 µM | SNB-19 > 100 µM | SW-620 34.8 µM

CCOC(=O)c1ccc(C(=O)/C(C(=O)OC(C)(C)C)=C2\CCCN2C)n1C
inactive: 786-0 > 100 µM | A549 61.2 µM | CAKI-1 > 100 µM | COLO 205 96.8 µM | DU-145 > 100 µM | EKVX 33.4 µM | HCC 2998 > 100 µM | LOX IMVI 87.3 µM | M14 57.8 µM | MCF7 55.8 µM | MDA-MB-435 69.7 µM | NCI-H226 > 100 µM | OVCAR-5 > 100 µM | SF-295 28.7 µM | SK-OV-3 16.6 µM | SN12C > 100 µM | SNB-19 > 100 µM | SW-620 > 100 µM | UACC-257 54 µM

CO[P@@]1(=O)O[C@@H](c2ccccc2)[C@H](O)[C@@]1(O)c1ccccc1
inactive: 786-0 > 100 µM | A549 > 100 µM | CAKI-1 > 100 µM | COLO 205 > 100 µM | DU-145 > 100 µM | EKVX > 100 µM | LOX IMVI > 100 µM | M14 > 100 µM | MCF7 > 100 µM | MDA-MB-435 > 100 µM | NCI-H226 > 100 µM | NCI-H522 > 100 µM | OVCAR-5 > 100 µM | SF-295 > 100 µM | SK-OV-3 > 100 µM | SN12C > 100 µM | SNB-19 > 100 µM | SW-620 > 100 µM | UACC-257 > 100 µM

N#Cc1cc2c(n(C3OC(CO)C(O)C(O)C3O)c1=S)CCC2 (centres undefined)
inactive: 786-0 > 100 µM | A549 > 100 µM | CAKI-1 > 100 µM | COLO 205 > 100 µM | DU-145 > 100 µM | HCC 2998 > 100 µM | LOX IMVI > 100 µM | M14 > 100 µM | MCF7 > 100 µM | MDA-MB-435 > 100 µM | NCI-H226 > 100 µM | NCI-H522 > 100 µM | OVCAR-5 > 100 µM | SF-295 > 100 µM | SN12C > 100 µM | SNB-19 > 100 µM | UACC-257 > 100 µM
